Measured values from ChEMBL document CHEMBL1144852, “Optimization of a dihydropyrrolopyrazole series of transforming growth factor-beta type I receptor kinase domain inhibitors: discovery of an orally bioavailable transforming growth factor-beta receptor type I inhibitor as antitumor agent” (J Med Chem, 2008).
One block for each compound: values may come before it.

What was measured:
[1] = target: TGF-beta receptor type-1 (Homo sapiens, UniProt P36897, T204D); test: Inhibition of TGFbeta type receptor 1 ALK5 (T204D) expressed in Sf9 cells
[2] = test system: NIH3T3; test: Antiproliferative activity against mouse NIH3T3 cells by [3H]thymidine assay; type: functional, cell-based
[3] = Antiproliferative activity against mink Mv1Lu-p3TP-Lux cells by luciferase reporter assay; type: functional, cell-based, Neovison vison; conditions: Neogale vison
[4] = AUC in rat at 10 mg/kg, po; type: ADME, organism-based; design: dose 10 mg/kg, route oral; conditions: plasma
[5] = test system: Mus musculus; test: Inhibition of TGFbeta type receptor 1 in human Calu6 cells xenografted mouse at 50 mg/kg, po by single point IVTI assay; type: functional, Calu-6; design: scale not given: the % may be the effect or the level left
[6] = test system: Mus musculus; test: Inhibition of TGFbeta type receptor 1 in orally dosed human Calu6 cells xenografted mouse by IVTI […] assay; type: functional, organism-based; conditions: Calu-6
[7] = target: Cyclin-dependent kinase 2 (Homo sapiens) (UniProt P24941); test: Inhibition of CDK2 at 20 uM
[8] = target: Dual specificity mitogen-activated protein kinase kinase 7 (Homo sapiens) (UniProt O14733); test: Inhibition of MKK7-beta at 20 uM
[9] = target: Mitogen-activated protein kinase 9 (Homo sapiens) (UniProt P45984); test: Inhibition of JNK2-alpha-2 at 20 uM
[10] = Inhibition of CK2 at 20 uM
[11] = target: Serine/threonine-protein kinase Chk2 (Homo sapiens) (UniProt O96017); test: Inhibition of Chk2 at 20 uM
[12] = target: Rho-associated protein kinase 2 (Homo sapiens) (UniProt O75116); test: Inhibition of Rock2 at 20 uM
[13] = target: Fibroblast growth factor receptor 3 (Homo sapiens) (UniProt P22607); test: Inhibition of FGFR3 at 20 uM
[14] = target: MAP kinase-activated protein kinase 2 (Homo sapiens) (UniProt P49137); test: Inhibition of MAPKAPK2 at 20 uM
[15] = test system: Caco-2; test: Permeability from apical to basolateral side of human Caco-2 cell membrane; type: ADME, cell-based
[16] = target: Tyrosine-protein kinase Fyn (Homo sapiens) (UniProt P06241); test: Inhibition of Fyn at 20 uM
[17] = target: Tyrosine-protein kinase Lck (Homo sapiens) (UniProt P06239); test: Inhibition of Lck at 20 uM
[18] = target: Mitogen-activated protein kinase 11 (Homo sapiens) (UniProt Q15759); test: Inhibition of Sapk2-beta at 20 uM
[19] = target: Dual specificity mitogen-activated protein kinase kinase 1 (Homo sapiens) (UniProt Q02750); test: Inhibition of Mek1 at 20 uM
[20] = target: Mitogen-activated protein kinase 14 (Homo sapiens) (UniProt Q16539); test: Inhibition of Sapk2-alpha at 20 uM
[21] = target: Mitogen-activated protein kinase 10 (Homo sapiens) (UniProt P53779); test: Inhibition of JNK3 at 20 uM
[22] = target: Vascular endothelial growth factor receptor 2 (Homo sapiens) (UniProt P35968); test: Inhibition of KDR at 20 uM
[23] = target: Dual specificity mitogen-activated protein kinase kinase 4 (Homo sapiens) (UniProt P45985); test: Inhibition of MKK4 at 20 uM
[24] = target: Mitogen-activated protein kinase 1 (Homo sapiens) (UniProt P28482); test: Inhibition of MAPK1 at 20 uM
[25] = target: 5'-AMP-activated protein kinase subunit beta-1 (Homo sapiens) (UniProt Q9Y478); test: Inhibition of AMPK at 20 uM
[26] = target: Serine/threonine-protein kinase N2 (Homo sapiens) (UniProt Q16513); test: Inhibition of PRK2 at 20 uM
[27] = Inhibition of CaMK2 at 20 uM
[28] = target: Glycogen synthase kinase-3 beta (Homo sapiens) (UniProt P49841); test: Inhibition of GSK3-beta at 20 uM
[29] = target: Dual specificity mitogen-activated protein kinase kinase 6 (Homo sapiens) (UniProt P52564); test: Inhibition of MKK6 at 20 uM
[30] = target: Ribosomal protein S6 kinase alpha-5 (Homo sapiens) (UniProt O75582); test: Inhibition of MSK1 at 20 uM
[31] = target: Ribosomal protein S6 kinase beta-1 (Homo sapiens) (UniProt P23443); test: Inhibition of p70S6K at 20 uM
[32] = target: Tyrosine-protein kinase ZAP-70 (Homo sapiens) (UniProt P43403); test: Inhibition of ZAP70 at 20 uM
[33] = Inhibition of JNK1-alpha at 20 uM
[34] = target: RAC-alpha serine/threonine-protein kinase (Homo sapiens) (UniProt P31749); test: Inhibition of PKBalpha at 20 uM
[35] = target: MAP kinase-activated protein kinase 5 (Homo sapiens) (UniProt Q8IW41); test: Inhibition of PRAK at 20 uM
[36] = target: Protein kinase C beta type (Homo sapiens) (UniProt P05771); test: Inhibition of PKC-beta-2 at 20 uM
[37] = target: Mitogen-activated protein kinase 13 (Homo sapiens) (UniProt O15264); test: Inhibition of Sapk4 at 20 uM
[38] = target: Mitogen-activated protein kinase 12 (Homo sapiens) (UniProt P53778); test: Inhibition of Sapk3 at 20 uM
[39] = target: Proto-oncogene tyrosine-protein kinase Src (Homo sapiens) (UniProt P12931); test: Inhibition of cSRC at 20 uM
[40] = Metabolic stability in rat microsomes; type: ADME, Microsome; further: time not given here
[41] = target: Serine/threonine-protein kinase Chk1 (Homo sapiens) (UniProt O14757); test: Inhibition of Chk1 at 20 uM
[42] = target: Protein kinase C delta type (Homo sapiens) (UniProt Q05655); test: Inhibition of PKCdelta at 20 uM
[43] = target: Cyclin-dependent kinase 1 (Homo sapiens) (UniProt P06493); test: Inhibition of CDK1 at 20 uM
[44] = target: Tyrosine-protein kinase Blk (Homo sapiens) (UniProt P51451); test: Inhibition of Blk at 20 uM
[45] = Inhibition of PKA at 20 uM
[46] = target: Protein kinase C alpha type (Homo sapiens) (UniProt P17252); test: Inhibition of PKCalpha at 20 uM
[47] = target: RAF proto-oncogene serine/threonine-protein kinase (Homo sapiens) (UniProt P04049); test: Inhibition of cRaf at 20 uM
[48] = target: Serine/threonine-protein kinase Sgk1 (Homo sapiens) (UniProt O00141); test: Inhibition of SGK at 20 uM
[49] = test system: Liver microsomes; test: Metabolic stability in human liver microsomes; type: ADME, Microsome; further: time not given here

Sequence of Fibroblast growth factor receptor 3 (Homo sapiens) (P22607 23-806 limits assumed): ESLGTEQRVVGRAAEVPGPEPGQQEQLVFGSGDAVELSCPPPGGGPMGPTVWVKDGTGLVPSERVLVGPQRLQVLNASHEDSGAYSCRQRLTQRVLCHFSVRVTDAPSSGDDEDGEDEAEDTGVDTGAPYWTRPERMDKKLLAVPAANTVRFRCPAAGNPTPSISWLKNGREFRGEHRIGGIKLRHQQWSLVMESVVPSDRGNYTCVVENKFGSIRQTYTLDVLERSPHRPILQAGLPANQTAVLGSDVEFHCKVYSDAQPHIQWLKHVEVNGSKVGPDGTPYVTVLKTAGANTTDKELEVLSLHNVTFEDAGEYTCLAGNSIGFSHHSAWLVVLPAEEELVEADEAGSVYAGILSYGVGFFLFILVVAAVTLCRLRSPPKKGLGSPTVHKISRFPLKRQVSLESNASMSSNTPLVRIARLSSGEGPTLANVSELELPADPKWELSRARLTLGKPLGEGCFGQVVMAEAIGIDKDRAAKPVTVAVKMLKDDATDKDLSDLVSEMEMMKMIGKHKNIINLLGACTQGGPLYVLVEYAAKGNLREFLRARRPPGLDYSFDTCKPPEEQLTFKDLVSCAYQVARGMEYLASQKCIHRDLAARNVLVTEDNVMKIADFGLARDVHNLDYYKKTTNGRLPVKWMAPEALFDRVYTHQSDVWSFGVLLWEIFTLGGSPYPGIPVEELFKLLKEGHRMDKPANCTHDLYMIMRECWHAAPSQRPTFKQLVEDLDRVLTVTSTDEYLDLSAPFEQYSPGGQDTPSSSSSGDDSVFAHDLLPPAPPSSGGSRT
Sequence of Dual specificity mitogen-activated protein kinase kinase 6 (Homo sapiens) (P52564 whole entry): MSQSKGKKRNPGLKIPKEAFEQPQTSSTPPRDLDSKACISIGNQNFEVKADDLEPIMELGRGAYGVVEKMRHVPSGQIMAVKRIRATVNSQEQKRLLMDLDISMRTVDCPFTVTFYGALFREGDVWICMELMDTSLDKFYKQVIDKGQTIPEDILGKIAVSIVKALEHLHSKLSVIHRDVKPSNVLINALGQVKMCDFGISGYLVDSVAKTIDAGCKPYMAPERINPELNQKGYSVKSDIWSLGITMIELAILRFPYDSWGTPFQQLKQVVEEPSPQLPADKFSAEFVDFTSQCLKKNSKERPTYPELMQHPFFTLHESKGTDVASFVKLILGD
Sequence of Mitogen-activated protein kinase 13 (Homo sapiens) (O15264 whole entry): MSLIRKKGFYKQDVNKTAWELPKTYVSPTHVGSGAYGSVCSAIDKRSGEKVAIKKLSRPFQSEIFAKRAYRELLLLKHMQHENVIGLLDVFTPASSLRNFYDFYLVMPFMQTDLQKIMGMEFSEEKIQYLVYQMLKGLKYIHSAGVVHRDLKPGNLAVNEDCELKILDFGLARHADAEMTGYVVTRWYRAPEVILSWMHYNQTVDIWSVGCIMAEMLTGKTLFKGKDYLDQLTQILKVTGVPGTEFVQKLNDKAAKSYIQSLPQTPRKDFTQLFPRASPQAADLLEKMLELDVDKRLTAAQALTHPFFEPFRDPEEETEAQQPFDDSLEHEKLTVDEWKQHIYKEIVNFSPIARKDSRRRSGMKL
Sequence of Glycogen synthase kinase-3 beta (Homo sapiens) (P49841 whole entry, looked up): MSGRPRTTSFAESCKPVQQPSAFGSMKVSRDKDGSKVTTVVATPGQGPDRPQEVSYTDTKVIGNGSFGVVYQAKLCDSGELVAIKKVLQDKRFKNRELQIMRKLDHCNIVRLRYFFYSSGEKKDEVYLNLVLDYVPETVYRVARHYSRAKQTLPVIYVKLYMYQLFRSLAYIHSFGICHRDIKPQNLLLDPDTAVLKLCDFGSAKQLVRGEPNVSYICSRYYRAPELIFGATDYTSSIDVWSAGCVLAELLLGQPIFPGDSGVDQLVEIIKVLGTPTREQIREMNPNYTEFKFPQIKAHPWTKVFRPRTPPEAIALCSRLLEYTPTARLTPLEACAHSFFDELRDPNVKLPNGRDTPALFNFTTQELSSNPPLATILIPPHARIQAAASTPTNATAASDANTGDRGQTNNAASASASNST
Sequence of RAF proto-oncogene serine/threonine-protein kinase (Homo sapiens) (P04049 whole entry): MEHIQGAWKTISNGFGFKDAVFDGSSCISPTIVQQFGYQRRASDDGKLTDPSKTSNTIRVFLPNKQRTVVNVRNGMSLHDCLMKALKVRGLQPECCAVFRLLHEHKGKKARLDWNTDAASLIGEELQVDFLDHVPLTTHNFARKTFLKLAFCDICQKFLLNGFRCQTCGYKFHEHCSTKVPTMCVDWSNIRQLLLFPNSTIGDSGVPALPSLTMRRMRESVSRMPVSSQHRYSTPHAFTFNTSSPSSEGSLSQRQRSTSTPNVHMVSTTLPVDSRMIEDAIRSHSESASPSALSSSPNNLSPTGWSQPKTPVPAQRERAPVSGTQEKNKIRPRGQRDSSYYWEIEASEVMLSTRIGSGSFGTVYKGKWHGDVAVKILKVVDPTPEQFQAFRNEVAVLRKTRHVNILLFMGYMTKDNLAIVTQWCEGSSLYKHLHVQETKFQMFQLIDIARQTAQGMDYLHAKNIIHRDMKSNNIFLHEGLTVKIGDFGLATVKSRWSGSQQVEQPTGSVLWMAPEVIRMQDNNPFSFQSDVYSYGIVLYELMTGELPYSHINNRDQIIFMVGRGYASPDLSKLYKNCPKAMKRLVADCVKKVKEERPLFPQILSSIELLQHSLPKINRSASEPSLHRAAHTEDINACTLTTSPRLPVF
Sequence of Rho-associated protein kinase 2 (Homo sapiens) (O75116 whole entry, looked up): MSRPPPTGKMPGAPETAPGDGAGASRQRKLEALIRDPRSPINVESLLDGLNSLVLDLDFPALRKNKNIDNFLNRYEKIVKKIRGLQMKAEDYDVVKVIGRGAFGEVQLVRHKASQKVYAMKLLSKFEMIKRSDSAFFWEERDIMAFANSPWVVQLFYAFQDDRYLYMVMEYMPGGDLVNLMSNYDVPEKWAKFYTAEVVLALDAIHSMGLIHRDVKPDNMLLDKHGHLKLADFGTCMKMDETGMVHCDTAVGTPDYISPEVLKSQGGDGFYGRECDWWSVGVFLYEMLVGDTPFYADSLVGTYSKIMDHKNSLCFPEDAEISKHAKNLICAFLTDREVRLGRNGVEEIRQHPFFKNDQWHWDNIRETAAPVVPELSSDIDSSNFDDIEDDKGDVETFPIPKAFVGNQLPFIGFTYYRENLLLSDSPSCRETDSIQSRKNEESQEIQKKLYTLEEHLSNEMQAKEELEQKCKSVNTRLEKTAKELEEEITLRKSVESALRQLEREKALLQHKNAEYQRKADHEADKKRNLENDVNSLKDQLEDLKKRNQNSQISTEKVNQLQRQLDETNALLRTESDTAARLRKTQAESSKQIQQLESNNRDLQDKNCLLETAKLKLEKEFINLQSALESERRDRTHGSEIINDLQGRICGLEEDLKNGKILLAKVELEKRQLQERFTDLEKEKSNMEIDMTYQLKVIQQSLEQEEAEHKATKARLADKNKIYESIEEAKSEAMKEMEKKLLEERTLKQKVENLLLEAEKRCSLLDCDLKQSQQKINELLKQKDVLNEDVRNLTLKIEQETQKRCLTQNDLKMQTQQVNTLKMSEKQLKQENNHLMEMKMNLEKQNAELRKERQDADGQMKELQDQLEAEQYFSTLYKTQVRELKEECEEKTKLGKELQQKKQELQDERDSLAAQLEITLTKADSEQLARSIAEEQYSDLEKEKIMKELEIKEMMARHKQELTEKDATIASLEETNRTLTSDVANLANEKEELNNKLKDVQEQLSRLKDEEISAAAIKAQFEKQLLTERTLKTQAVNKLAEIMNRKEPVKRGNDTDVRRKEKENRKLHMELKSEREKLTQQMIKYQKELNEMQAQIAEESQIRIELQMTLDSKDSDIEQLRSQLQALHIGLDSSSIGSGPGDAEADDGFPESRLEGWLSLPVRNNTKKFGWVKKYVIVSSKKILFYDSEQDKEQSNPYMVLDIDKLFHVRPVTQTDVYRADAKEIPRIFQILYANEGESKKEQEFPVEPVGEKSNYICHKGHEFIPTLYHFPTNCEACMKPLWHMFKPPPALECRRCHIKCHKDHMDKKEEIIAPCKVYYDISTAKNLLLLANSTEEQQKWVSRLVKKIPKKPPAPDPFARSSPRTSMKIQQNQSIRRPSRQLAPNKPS
Sequence of Tyrosine-protein kinase Lck (Homo sapiens) (P06239 2-509 limits assumed): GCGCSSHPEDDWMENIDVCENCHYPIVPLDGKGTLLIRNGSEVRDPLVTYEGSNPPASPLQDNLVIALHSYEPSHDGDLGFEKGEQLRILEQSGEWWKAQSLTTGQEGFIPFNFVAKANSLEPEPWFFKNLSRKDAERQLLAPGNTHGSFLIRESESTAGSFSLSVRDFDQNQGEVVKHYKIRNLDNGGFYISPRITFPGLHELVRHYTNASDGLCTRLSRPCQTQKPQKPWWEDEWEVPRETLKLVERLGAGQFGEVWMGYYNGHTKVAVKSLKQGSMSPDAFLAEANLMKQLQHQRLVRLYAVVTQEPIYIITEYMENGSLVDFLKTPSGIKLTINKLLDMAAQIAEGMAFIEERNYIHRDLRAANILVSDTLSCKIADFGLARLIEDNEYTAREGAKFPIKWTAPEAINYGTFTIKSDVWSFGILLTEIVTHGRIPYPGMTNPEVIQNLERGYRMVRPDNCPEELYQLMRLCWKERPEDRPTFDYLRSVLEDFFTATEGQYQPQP
Sequence of 5'-AMP-activated protein kinase subunit beta-1 (Homo sapiens) (Q9Y478 whole entry): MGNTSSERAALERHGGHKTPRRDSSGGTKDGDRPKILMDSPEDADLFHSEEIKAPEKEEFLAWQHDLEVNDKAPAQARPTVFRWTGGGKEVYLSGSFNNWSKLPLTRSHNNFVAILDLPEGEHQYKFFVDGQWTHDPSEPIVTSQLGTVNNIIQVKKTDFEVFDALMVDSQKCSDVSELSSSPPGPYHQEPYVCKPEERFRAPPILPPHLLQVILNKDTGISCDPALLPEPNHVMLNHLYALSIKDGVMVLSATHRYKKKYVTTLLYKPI
Sequence of Cyclin-dependent kinase 1 (Homo sapiens) (P06493 whole entry, looked up): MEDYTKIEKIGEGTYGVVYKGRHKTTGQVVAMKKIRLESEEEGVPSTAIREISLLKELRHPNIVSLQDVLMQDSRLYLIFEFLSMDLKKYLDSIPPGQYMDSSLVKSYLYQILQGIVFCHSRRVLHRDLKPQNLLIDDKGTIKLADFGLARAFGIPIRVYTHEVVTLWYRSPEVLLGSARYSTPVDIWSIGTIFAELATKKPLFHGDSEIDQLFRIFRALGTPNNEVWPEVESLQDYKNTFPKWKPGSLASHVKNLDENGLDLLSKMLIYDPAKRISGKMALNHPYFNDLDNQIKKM

Compound: CN1CCN(C(=O)COc2ccc3c(-c4c(-c5ccccn5)nn5c4CCC5)ccnc3c2)CC1
IC50 [2]: 0.73 µM
IC50 [1]: 0.049 µM
IC50 [3]: 0.26 µM

Compound: CCSc1cc(-c2c(-c3ccccn3)nn3c2CCC3)c2ccccc2n1
IC50 [1]: > 20 µM
IC50 [3]: > 20 µM

Compound: CN1CCCC1CCCOc1ccc2c(-c3c(-c4ccccn4)nn4c3CCC4)ccnc2c1 (configuration not stated)
IC50 [2]: 0.02 µM
Activity [5]: 75%
EC50 [6]: 0.377 µM
IC50 [1]: 0.072 µM
IC50 [3]: 0.017 µM

Compound: CN(C)Cc1ccc(Oc2ccc3c(-c4c(-c5ccccn5)nn5c4CCC5)ccnc3c2)cc1
IC50 [1]: 0.75 µM

Compound: c1ccc(-c2nn3c(c2-c2cc(N4CCCC4)nc4ccccc24)CCC3)nc1
IC50 [1]: > 20 µM
IC50 [3]: > 20 µM

Compound: Clc1cc(-c2c(-c3ccccn3)nn3c2CCC3)c2ccccc2n1
IC50 [2]: > 20 µM
IC50 [1]: 19.8 µM
IC50 [3]: > 20 µM

Compound: CN(C)CCOc1ccc2c(-c3c(-c4ccccn4)nn4c3CCC4)ccnc2c1
inhibition [7]: < 50%
inhibition [8]: < 50%
inhibition [9]: < 50%
inhibition [10]: < 50%
inhibition [11]: < 50%
inhibition [12]: < 50%
inhibition [13]: < 50%
inhibition [14]: < 50%
permeability [15]: 28%
inhibition [16]: 18%
inhibition [17]: 81%
inhibition [18]: 29%
inhibition [19]: < 50%
inhibition [20]: 87%
IC50 [2]: 0.098 µM
Activity [5]: 59%
EC50 [6]: 0.31 µM
inhibition [21]: 51%
inhibition [22]: < 50%
inhibition [23]: < 50%
inhibition [24]: 30%
inhibition [25]: < 50%
inhibition [26]: < 50%
inhibition [27]: < 50%
inhibition [28]: < 50%
inhibition [29]: 62%
inhibition [30]: < 50%
inhibition [31]: < 50%
inhibition [32]: < 50%
inhibition [33]: < 50%
inhibition [34]: < 50%
inhibition [35]: < 50%
inhibition [36]: < 50%
inhibition [37]: < 50%
inhibition [38]: < 50%
inhibition [39]: < 50%
Stability [40]: 60%
inhibition [41]: < 50%
inhibition [42]: < 50%
inhibition [43]: < 50%
inhibition [44]: < 50%
inhibition [45]: < 50%
inhibition [46]: < 50%
inhibition [47]: < 50%
inhibition [48]: < 50%

Compound: CN1CCN(CCCOc2ccc3c(-c4c(-c5ccccn5)nn5c4CCC5)ccnc3c2)CC1
permeability [15]: 13%
IC50 [2]: 0.092 µM
Activity [5]: 70%
EC50 [6]: 1.1 µM
IC50 [1]: 0.074 µM
IC50 [3]: 0.044 µM
Stability [49]: 17%
Stability [40]: 46%

Continued, in another order:

IC50 [1]: 1.1 µM
Compound: NC(=O)c1ccc(Oc2ccc3c(-c4c(-c5ccccn5)nn5c4CCC5)ccnc3c2)cc1

IC50 [1]: 0.526 µM
Compound: COC(=O)c1ccc2nccc(-c3c(-c4cccc(C)n4)nn4c3CCC4)c2c1
IC50 [3]: 0.403 µM

AUC [4]: 0.398 µg·h/mL
Compound: CN(C)CC(=O)Nc1ccc2c(-c3c(-c4ccccn4)nn4c3CCC4)ccnc2c1

IC50 [1]: 0.16 µM
Compound: Oc1ccc2c(-c3c(-c4ccccn4)nn4c3CCC4)ccnc2c1
IC50 [2]: 0.42 µM
IC50 [3]: 0.2 µM

IC50 [1]: 0.193 µM
Compound: Cc1cccc(-c2nn3c(c2-c2ccnc4ccc(C(=O)NCCN(C)C)cc24)CCC3)n1
IC50 [2]: 2.27 µM
IC50 [3]: 0.468 µM

permeability [15]: 27%
EC50 [6]: 0.343 µM
IC50 [1]: 0.085 µM
Stability [49]: 29%
Stability [40]: 57%
Compound: CCN(C)CCOc1ccc2c(-c3c(-c4ccccn4)nn4c3CCC4)ccnc2c1
IC50 [2]: 0.072 µM
Activity [5]: 70%
IC50 [3]: 0.061 µM
